Reference: patent US20080009418A1, “Selective Inhibitors” (Alchemia LTD., priority 2004, published 2008)

Columns and labels:
Conditions in all cases: compound at 10 μM
[1] = target: T1, Human melanin-concentrating hormone (MCH1) (Homo sapiens, UniProt Q99705); experiment: Radioligand binding, human melanin-concentrating hormone MCH1 membranes, FlashPlate, [125I]-S36057
T1 construct: purchased Perkin Elmer Biosignal
Outline: (§1)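 Cloned human receptor membranes were coated onto FlashPlate wells and incubated with radioligand and compound (added from a 0.5 mM DMSO daughter plate) for 1 hour at room temperature in the dark. Scintillation counting gave percent inhibition, with DMSO defining total and reference ligand defining non-specific binding.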

[2] = target: T2, Human opioid (ORL1) (Homo sapiens, UniProt P41146); experiment: Radioligand binding, human opioid ORL1 membranes, FlashPlate, [125I]-Nociceptin
T2 construct: purchased Perkin Elmer Biosignal
T2 sequence (P41146 whole entry): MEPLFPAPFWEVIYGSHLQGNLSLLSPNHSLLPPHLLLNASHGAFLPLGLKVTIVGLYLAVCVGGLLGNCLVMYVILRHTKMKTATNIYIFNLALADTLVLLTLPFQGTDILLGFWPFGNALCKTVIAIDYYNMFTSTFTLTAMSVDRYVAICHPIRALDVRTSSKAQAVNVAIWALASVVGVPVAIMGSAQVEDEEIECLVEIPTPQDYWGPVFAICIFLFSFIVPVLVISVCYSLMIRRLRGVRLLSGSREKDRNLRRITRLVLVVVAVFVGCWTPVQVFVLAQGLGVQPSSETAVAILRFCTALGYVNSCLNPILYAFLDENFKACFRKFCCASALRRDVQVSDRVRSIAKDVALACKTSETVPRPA
Outline: as §1

[3] = target: T3, Human μ-opioid (MOP) (Homo sapiens, UniProt P35372); experiment: Radioligand binding, human μ-opioid (MOP) membranes, FlashPlate, [3H]-Naloxone
T3 construct: purchased Perkin Elmer Biosignal
T3 sequence (P35372 whole entry): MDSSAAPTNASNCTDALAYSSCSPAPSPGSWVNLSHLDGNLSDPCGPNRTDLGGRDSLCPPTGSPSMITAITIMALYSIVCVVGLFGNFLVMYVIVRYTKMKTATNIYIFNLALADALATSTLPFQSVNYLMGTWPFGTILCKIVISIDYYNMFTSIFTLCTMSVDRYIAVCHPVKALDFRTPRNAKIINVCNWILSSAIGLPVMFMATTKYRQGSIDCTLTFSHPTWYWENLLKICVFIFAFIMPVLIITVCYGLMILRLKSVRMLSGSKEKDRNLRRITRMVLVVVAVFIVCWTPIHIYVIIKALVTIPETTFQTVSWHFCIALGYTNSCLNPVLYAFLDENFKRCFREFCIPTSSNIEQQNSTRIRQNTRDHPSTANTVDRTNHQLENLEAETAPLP
Outline: as §1

[4] = target: T4, Human Melanocortin (MC4) (Homo sapiens, UniProt P32245); experiment: Radioligand binding, human melanocortin MC4 membranes, FlashPlate, [125I]-NDP-αMSH
T4 construct: purchased Perkin Elmer Biosignal
T4 sequence (P32245 whole entry): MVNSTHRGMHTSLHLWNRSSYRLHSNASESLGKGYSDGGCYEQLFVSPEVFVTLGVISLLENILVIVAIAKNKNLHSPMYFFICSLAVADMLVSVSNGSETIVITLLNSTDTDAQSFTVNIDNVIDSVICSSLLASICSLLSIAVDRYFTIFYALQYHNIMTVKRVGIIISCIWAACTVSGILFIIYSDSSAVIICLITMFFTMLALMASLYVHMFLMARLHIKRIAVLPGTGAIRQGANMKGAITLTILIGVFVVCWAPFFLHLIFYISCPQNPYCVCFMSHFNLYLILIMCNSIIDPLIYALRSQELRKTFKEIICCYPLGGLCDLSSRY
Outline: as §1

[5] = target: T5, Human κ-Opioid (KOP) (Homo sapiens, UniProt P41145); experiment: Radioligand binding, human κ-opioid (KOP) membranes, filtration, [3H]-Diprenorphine
T5 construct: purchased Perkin Elmer Biosignal
T5 sequence (P41145 whole entry): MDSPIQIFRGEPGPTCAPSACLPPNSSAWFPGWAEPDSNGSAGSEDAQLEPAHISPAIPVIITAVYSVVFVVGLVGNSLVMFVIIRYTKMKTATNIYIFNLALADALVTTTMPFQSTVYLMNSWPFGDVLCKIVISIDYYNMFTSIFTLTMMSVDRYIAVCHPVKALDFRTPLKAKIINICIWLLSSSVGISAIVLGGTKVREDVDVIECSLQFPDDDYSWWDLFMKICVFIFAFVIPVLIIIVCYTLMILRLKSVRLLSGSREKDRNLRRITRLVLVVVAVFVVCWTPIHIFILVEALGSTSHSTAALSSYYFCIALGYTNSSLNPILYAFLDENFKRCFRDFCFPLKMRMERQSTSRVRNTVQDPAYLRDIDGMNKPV
Outline: (§2)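 Membranes from cloned human receptors were incubated with compound and radioligand for 1 hour at room temperature. Bound ligand was collected on 0.3% PEI-soaked filters, washed with cold 50 mM Tris-HCl pH 7.4, and counted by scintillation. Percent inhibition was computed against DMSO totals and reference-ligand nonspecific wells.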

[6] = target: T6, Human δ-opioid (DOP) (Homo sapiens, UniProt P41143); experiment: Radioligand binding, human δ-opioid (DOP) membranes, FlashPlate, [3H]-Bremazocine
T6 construct: purchased Perkin Elmer Biosignal
T6 sequence (P41143 whole entry): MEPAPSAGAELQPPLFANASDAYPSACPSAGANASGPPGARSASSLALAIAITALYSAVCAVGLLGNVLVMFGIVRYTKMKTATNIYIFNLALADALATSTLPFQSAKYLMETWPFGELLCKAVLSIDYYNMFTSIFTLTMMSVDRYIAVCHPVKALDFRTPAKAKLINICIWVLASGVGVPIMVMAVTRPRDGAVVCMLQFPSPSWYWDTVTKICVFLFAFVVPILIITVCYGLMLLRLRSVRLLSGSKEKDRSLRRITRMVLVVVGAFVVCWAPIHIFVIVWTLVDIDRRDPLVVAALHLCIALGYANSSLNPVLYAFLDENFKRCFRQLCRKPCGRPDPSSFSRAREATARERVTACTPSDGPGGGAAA
Outline: as §1

[7] = target: T7, Human neuropeptide Y (NPY-Y1) (Homo sapiens, UniProt P25929); experiment: Radioligand binding, human neuropeptide Y NPY-Y1 membranes, FlashPlate, [125I]-PYY
T7 construct: purchased Perkin Elmer Biosignal
T7 sequence (P25929 1-384): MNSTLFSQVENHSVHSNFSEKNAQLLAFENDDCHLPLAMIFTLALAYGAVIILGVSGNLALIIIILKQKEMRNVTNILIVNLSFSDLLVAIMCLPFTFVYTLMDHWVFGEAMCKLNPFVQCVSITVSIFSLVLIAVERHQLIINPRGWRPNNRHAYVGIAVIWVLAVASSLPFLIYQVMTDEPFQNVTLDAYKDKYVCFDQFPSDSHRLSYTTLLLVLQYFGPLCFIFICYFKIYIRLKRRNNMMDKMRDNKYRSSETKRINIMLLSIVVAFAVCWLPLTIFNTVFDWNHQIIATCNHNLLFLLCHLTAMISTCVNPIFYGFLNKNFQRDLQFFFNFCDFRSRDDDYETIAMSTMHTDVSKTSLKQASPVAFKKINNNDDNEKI
Outline: as §1

[8] = target: T8, Human melanocortin (MC5) (Homo sapiens, UniProt P33032); experiment: Radioligand binding, human melanocortin MC5 membranes, FlashPlate, [125I]-NDP-αMSH
T8 construct: purchased Perkin Elmer Biosignal
T8 sequence (P33032 whole entry): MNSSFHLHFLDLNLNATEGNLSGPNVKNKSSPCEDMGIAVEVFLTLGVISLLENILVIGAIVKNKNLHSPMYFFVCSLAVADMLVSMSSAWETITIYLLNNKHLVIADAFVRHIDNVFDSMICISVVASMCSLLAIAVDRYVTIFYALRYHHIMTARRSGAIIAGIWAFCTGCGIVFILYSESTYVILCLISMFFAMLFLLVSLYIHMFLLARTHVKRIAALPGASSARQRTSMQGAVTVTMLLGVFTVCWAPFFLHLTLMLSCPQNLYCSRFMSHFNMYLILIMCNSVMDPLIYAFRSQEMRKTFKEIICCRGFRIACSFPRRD
Outline: as §1

[9] = target: T9, Human neurokinin (NK1) (Homo sapiens, UniProt P25103); experiment: Radioligand binding, human neurokinin NK1 membranes, filtration, [125I]-Substance P
T9 construct: purchased Perkin Elmer Biosignal
T9 sequence (P25103 whole entry): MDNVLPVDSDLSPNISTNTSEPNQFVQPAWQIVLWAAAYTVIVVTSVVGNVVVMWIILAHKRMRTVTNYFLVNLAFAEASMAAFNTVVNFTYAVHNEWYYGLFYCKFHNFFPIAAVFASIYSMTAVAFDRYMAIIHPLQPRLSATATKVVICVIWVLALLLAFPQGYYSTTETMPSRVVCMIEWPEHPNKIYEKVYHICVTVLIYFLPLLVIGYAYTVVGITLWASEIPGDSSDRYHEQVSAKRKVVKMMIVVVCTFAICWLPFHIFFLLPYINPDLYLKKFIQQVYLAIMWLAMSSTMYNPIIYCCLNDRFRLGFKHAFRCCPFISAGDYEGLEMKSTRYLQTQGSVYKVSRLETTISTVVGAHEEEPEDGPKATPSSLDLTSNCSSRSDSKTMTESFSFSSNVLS
Outline: as §2

[10] = target: T10, Mouse urotensin (mUR2) (Mus musculus, UniProt Q8VIH9); experiment: Radioligand binding, mouse urotensin mUR2 membranes, FlashPlate, [125I]-Urotensin II
T10 construct: purchased Perkin Elmer Biosignal
T10 sequence (Q8VIH9 1-385): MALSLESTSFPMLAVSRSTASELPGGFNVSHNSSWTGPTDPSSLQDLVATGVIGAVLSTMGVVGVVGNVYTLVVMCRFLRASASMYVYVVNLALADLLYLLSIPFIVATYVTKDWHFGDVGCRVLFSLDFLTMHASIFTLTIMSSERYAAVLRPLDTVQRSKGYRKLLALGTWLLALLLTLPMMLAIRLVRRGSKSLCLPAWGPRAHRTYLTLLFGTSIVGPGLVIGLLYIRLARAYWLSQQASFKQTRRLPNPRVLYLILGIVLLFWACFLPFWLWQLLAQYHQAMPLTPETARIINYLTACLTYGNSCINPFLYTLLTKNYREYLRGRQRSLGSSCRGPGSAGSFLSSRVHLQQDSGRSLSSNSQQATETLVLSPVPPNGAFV
Outline: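 Cloned mouse urotensin (mUR2) receptor membranes from Perkin Elmer Biosignal were immobilized in FlashPlate microplates using a proprietary coating. Each well got 19.5 μl buffer, then 0.5 μl of DMSO, reference ligand, or compound. Adding 5 μl of [125I]-Urotensin II, diluted to 5× final concentration in binding buffer, started binding. Plates were sealed with TopSeal-A and incubated 1 hour at room temperature in the dark. Wells were counted for 30 seconds each on a TopCount after a 60-second delay, and percentage inhibition was calculated.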

[11] = target: T11, Human Melanocortin (MC3) (Homo sapiens, UniProt P41968); experiment: Radioligand binding, human melanocortin MC3 membranes, FlashPlate, [125I]-NDP-αMSH
T11 construct: purchased Perkin Elmer Biosignal
T11 sequence (P41968 whole entry): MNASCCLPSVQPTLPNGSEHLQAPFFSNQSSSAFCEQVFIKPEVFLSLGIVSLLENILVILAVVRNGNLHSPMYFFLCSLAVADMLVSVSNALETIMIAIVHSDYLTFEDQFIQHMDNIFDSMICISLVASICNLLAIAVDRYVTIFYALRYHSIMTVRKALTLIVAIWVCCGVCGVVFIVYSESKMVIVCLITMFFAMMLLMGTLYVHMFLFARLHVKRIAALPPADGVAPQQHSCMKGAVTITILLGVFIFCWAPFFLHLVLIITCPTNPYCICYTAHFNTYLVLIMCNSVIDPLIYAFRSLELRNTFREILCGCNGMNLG
Outline: as §1

T1 sequence (Q99705 whole entry): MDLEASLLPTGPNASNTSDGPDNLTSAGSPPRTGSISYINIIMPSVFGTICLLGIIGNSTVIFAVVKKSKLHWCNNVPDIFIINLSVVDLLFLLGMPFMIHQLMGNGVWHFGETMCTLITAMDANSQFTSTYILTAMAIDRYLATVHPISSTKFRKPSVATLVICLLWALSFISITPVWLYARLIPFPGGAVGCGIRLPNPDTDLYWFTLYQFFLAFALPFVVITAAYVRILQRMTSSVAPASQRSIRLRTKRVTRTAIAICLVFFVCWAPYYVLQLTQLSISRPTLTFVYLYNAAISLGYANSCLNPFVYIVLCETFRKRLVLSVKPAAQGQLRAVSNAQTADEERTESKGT

COCC1OC(OCc2ccc3ccccc3c2)C(NC(=O)CNC(=N)N)C(OCc2ccc(Cl)cc2)C1O (stereo not shown) [compound 236]
A6: inhibition of radioligand binding ([1]; [125I]-S36057, FlashPlate): + (“+” indicates greater than 50% inhibition at 10 μM)
A10: inhibition of radioligand binding ([2]; [125I]-Nociceptin, FlashPlate): − (“−” indicates less than 50% inhibition at 10 μM)
A7: inhibition of radioligand binding ([3]; [3H]-Naloxone, FlashPlate): − (“−” indicates less than 50% inhibition at 10 μM)
A4: inhibition of radioligand binding ([4]; [125I]-NDP-αMSH, FlashPlate): + (“+” indicates greater than 50% inhibition at 10 μM)
A2: inhibition of radioligand binding ([5]; [3H]-Diprenorphine, filtration): − (“−” indicates less than 50% inhibition at 10 μM)
A1: inhibition of radioligand binding ([6]; [3H]-Bremazocine, FlashPlate): − (“−” indicates less than 50% inhibition at 10 μM)
A9: inhibition of radioligand binding ([7]; [125I]-PYY, FlashPlate): − (“−” indicates less than 50% inhibition at 10 μM)
A5: inhibition of radioligand binding ([8]; [125I]-NDP-αMSH, FlashPlate): + (“+” indicates greater than 50% inhibition at 10 μM)
A8: inhibition of radioligand binding ([9]; [125I]-Substance P, filtration): + (“+” indicates greater than 50% inhibition at 10 μM)
A11: inhibition of radioligand binding ([10]; [125I]-Urotensin II, FlashPlate): − (“−” indicates less than 50% inhibition at 10 μM)
A3: inhibition of radioligand binding ([11]; [125I]-NDP-αMSH, FlashPlate): + (“+” indicates greater than 50% inhibition at 10 μM)

N=C(N)NCC(=O)N[C@H]1C(OCc2ccc(Cl)cc2)O[C@H](COCc2ccc3ccccc3c2)[C@@H](O)[C@@H]1OCc1ccc2ccccc2c1 (stereo partly shown) [compound 513]
A6: inhibition of radioligand binding, human melanin-concentrating hormone (MCH1) ([1]; [125I]-S36057): + (“+” indicates greater than 50% inhibition at 10 μM)
A10: inhibition of radioligand binding, human opioid (ORL1) ([2]; [125I]-Nociceptin): + (“+” indicates greater than 50% inhibition at 10 μM)
A7: inhibition of radioligand binding, human μ-opioid (MOP) ([3]; [3H]-Naloxone): + (“+” indicates greater than 50% inhibition at 10 μM)
A4: inhibition of radioligand binding, human melanocortin (MC4) ([4]; [125I]-NDP-αMSH): + (“+” indicates greater than 50% inhibition at 10 μM)
A2: inhibition of radioligand binding, human κ-opioid (KOP) ([5]; [3H]-Diprenorphine, 10 µM): + (“+” indicates greater than 50% inhibition at 10 μM)
A1: inhibition of radioligand binding, human δ-opioid (DOP) ([6]; [3H]-Bremazocine): − (“−” indicates less than 50% inhibition at 10 μM)
A9: inhibition of radioligand binding, human neuropeptide Y (NPY-Y1) ([7]; [125I]-PYY, 10 µM): + (“+” indicates greater than 50% inhibition at 10 μM)
A5: inhibition of radioligand binding, human melanocortin (MC5) ([8]; [125I]-NDP-αMSH): + (“+” indicates greater than 50% inhibition at 10 μM)
A8: inhibition of radioligand binding, human neurokinin (NK1) ([9]; [125I]-Substance P): + (“+” indicates greater than 50% inhibition at 10 μM)
A11: inhibition of radioligand binding, mouse urotensin (mUR2) ([10]; [125I]-Urotensin II): − (“−” indicates less than 50% inhibition at 10 μM)
A3: inhibition of radioligand binding, human melanocortin (MC3) ([11]; [125I]-NDP-αMSH): + (“+” indicates greater than 50% inhibition at 10 μM)

CO[C@H]1[C@H](O)[C@@H](COCc2ccc3ccccc3c2)OC(OCc2cccc(O)c2)[C@@H]1NC(=O)CNC(=N)N (stereo partly shown) [compound 165]
A6 radioligand binding, percentage inhibition ([1]; [125I]-S36057): − (“−” indicates less than 50% inhibition at 10 μM)
A10 radioligand binding, percentage inhibition ([2]; [125I]-Nociceptin): − (“−” indicates less than 50% inhibition at 10 μM)
A7 radioligand binding, percentage inhibition ([3]; [3H]-Naloxone): − (“−” indicates less than 50% inhibition at 10 μM)
A4 radioligand binding, percentage inhibition ([4]; [125I]-NDP-αMSH): − (“−” indicates less than 50% inhibition at 10 μM)
A2 radioligand binding, percentage inhibition ([5]; [3H]-Diprenorphine): − (“−” indicates less than 50% inhibition at 10 μM)
A1 radioligand binding, percentage inhibition ([6]; [3H]-Bremazocine): − (“−” indicates less than 50% inhibition at 10 μM)
A9 radioligand binding, percentage inhibition ([7]; [125I]-PYY): − (“−” indicates less than 50% inhibition at 10 μM)
A5 radioligand binding, percentage inhibition ([8]; [125I]-NDP-αMSH): − (“−” indicates less than 50% inhibition at 10 μM)
A8 radioligand binding, percentage inhibition ([9]; [125I]-Substance P): + (“+” indicates greater than 50% inhibition at 10 μM)
A11 radioligand binding, percentage inhibition ([10]; [125I]-Urotensin II): − (“−” indicates less than 50% inhibition at 10 μM)
A3 radioligand binding, percentage inhibition ([11]; [125I]-NDP-αMSH): − (“−” indicates less than 50% inhibition at 10 μM)

COCC1OC(OCCc2ccccc2)C(NC(=O)CNC(=N)N)C(OCc2ccc(-c3ccccc3)cc2)C1O (stereo not shown) [compound 548]
A6: inhibition of radioligand binding, human melanin-concentrating hormone (MCH1) ([1]; [125I]-S36057): − (“−” indicates less than 50% inhibition at 10 μM)
A10: inhibition of radioligand binding, human opioid (ORL1) ([2]; [125I]-Nociceptin): − (“−” indicates less than 50% inhibition at 10 μM)
A7: inhibition of radioligand binding, human μ-opioid (MOP) ([3]; [3H]-Naloxone): − (“−” indicates less than 50% inhibition at 10 μM)
A4: inhibition of radioligand binding, human melanocortin (MC4) ([4]; [125I]-NDP-αMSH): − (“−” indicates less than 50% inhibition at 10 μM)
A2: inhibition of radioligand binding, human κ-opioid (KOP) ([5]; [3H]-Diprenorphine): − (“−” indicates less than 50% inhibition at 10 μM)
A1: inhibition of radioligand binding, human δ-opioid (DOP) ([6]; [3H]-Bremazocine): − (“−” indicates less than 50% inhibition at 10 μM)
A9: inhibition of radioligand binding, human neuropeptide Y (NPY-Y1) ([7]; [125I]-PYY): − (“−” indicates less than 50% inhibition at 10 μM)
A5: inhibition of radioligand binding, human melanocortin (MC5) ([8]; [125I]-NDP-αMSH): + (“+” indicates greater than 50% inhibition at 10 μM)
A8: inhibition of radioligand binding, human neurokinin (NK1) ([9]; [125I]-Substance P, 10 µM): + (“+” indicates greater than 50% inhibition at 10 μM)
A11: inhibition of radioligand binding, mouse urotensin (mUR2) ([10]; [125I]-Urotensin II): − (“−” indicates less than 50% inhibition at 10 μM)
A3: inhibition of radioligand binding, human melanocortin (MC3) ([11]; [125I]-NDP-αMSH): − (“−” indicates less than 50% inhibition at 10 μM)

COC[C@H]1OC(OCc2ccc(Cl)cc2)[C@H](NC(=O)CNC(=N)N)[C@@H](OCc2ccc(Cl)cc2)[C@@H]1O (stereo partly shown) [compound 37]
A6 radioligand binding inhibition ([1]; human MCH1 membranes): + (“+” indicates greater than 50% inhibition at 10 μM)
A10 radioligand binding inhibition ([2]; human ORL1 membranes): − (“−” indicates less than 50% inhibition at 10 μM)
A7 radioligand binding inhibition ([3]; human μ-opioid (MOP) membranes): − (“−” indicates less than 50% inhibition at 10 μM)
A4 radioligand binding inhibition ([4]; human melanocortin MC4 membranes): + (“+” indicates greater than 50% inhibition at 10 μM)
A2 radioligand binding inhibition ([5]; human κ-opioid (KOP) membranes): − (“−” indicates less than 50% inhibition at 10 μM)
A1 radioligand binding inhibition ([6]; human δ-opioid (DOP) membranes): − (“−” indicates less than 50% inhibition at 10 μM)
A9 radioligand binding inhibition ([7]; human NPY-Y1 membranes): − (“−” indicates less than 50% inhibition at 10 μM)
A5 radioligand binding inhibition ([8]; human melanocortin MC5 membranes): + (“+” indicates greater than 50% inhibition at 10 μM)
A8 radioligand binding inhibition ([9]; human neurokinin NK1 membranes): − (“−” indicates less than 50% inhibition at 10 μM)
A11 radioligand binding inhibition ([10]; mouse urotensin mUR2 membranes): − (“−” indicates less than 50% inhibition at 10 μM)
A3 radioligand binding inhibition ([11]; human melanocortin MC3 membranes): + (“+” indicates greater than 50% inhibition at 10 μM)
